Experimental data published in patent US9216964B2, “Hedgehog pathway modulators” (Novartis AG, priority 2008, dated 2015).
Where two headings read alike, the source gives them in different places.

System: hedgehog signaling pathway
Assay: Gli-Luc Reporter Assay for Hh Pathway Inhibition (TMHh-12 cells, pTA-8×Gli-Luc reporter)
Type: cell-based, Mouse
Experimental: Compounds of the present invention are assayed to evaluate their capacity to inhibit the hedgehog signaling pathway.
Gli-Luc Reporter Assay for Hh Pathway Inhibition
Mouse TM3 cells (obtained from American Type Culture Collection, ATCC, Manassas, Va.) are cultured in DMEM/F12 medium (Gibco/Invitrogen, Carlsbad, Calif.) supplemented with 5% heat inactivated horse serum and 2.5% FBS (Gibco/Invitrogen, Carlsbad, Calif.), 50 unit/mL penicillin and 50 μg/mL of streptomycin (Gibco/Invitrogen, Carlsbad, Calif.) at […] with 5% CO2 in air atmosphere. TM3 cells were transfected with pTA-8×Gli-Luc reporter plasmid. A stably transfected clone termed TMHh-12 was selected. […] To evaluate the IC50s of the antagonists, 8000 TMHh-12 cells were plated into each wells in 384-well plates with 50% DMEM/F12 medium supplemented with 2% FBS. After 12 hours, Hh pathway is activated by adding recombinant mouse Shh protein (expressed in E. coli, 8 μg/mL) or by adding Smo agonists. The testing compounds are added into plates with different concentrations. After 48 hours, the firefly luciferase luciferase activities are assayed with the Bright-Glo™ Luciferase Assay System (Promega, Madison, Wis.). The IC50 is measured when the effect of the compound reduces the luminescence signal by 50%. Toxicity of these compounds are evaluated in TM3 cells using CellTiter Glo assays or by TM3-Luc cell line (a TM3 cell stably transfected with a constitutive luciferase expression vector).

[1] = Mus musculus, TMHh12, enzymatic and cellular assays for the inhibition of hedgehog signaling pathways, read-out: IC50 Ranges
[2] = Mus musculus, TMHh12, Ag1.5 1 nM, read-out: Hedgehog Inhibition IC50 (nM) (Ag1.5 1 nM)
[3] = enzymatic and cellular assays for the inhibition of hedgehog signaling pathways, read-out: IC50 Ranges

Clc1ccc(Nc2cccc3c2CCN(C2CCOCC2)C3)cc1-c1ncc(-c2ccccc2)[nH]1 [Compound 29]
IC50 [1]: 0.001 to 1 nM

Clc1ccc(Nc2cccc3c2CCN(C2CCCCCC2)C3)cc1-c1ncc(-c2ccccc2)[nH]1 [Compound 30]
IC50 [2]: 1.2 nM
IC50 [1]: 1 to 10 nM

CCC(CC)N1CCC(N2CCc3c(cccc3Nc3ccc(Cl)c(-c4ncc(-c5ccccc5)[nH]4)c3)C2)CC1 [Compound 31]
IC50 [1]: 0.001 to 1 nM

CCN1CCC(N2CCc3c(Nc4ccc(Cl)c(-c5ncc(-c6ccccc6)[nH]5)c4)cccc3C2=O)CC1 [Compound 32]
IC50 [1]: 1 to 10 nM

O=C1CCC(N2CCc3c(cccc3Nc3ccc(Cl)c(-c4ncc(-c5ccccc5)[nH]4)c3)C2)CC1 [Compound 33]
IC50 [2]: 0.7 nM
IC50 [1]: 0.001 to 1 nM

OCC(CO)N1CCc2c(cccc2Nc2ccc(Cl)c(-c3ncc(-c4ccccc4)[nH]3)c2)C1 [Compound 34]
IC50 [2]: 1.8 nM
IC50 [1]: 1 to 10 nM

O=C1c2cccc(Nc3ccc(Cl)c(-c4ncc(-c5ccccc5)[nH]4)c3)c2CCN1C[C@H](O)CO [Compound 35]
IC50 [2]: 2.6 nM
IC50 [1]: 1 to 10 nM

CC(C)N1CCC(N2CCc3c(cccc3Nc3ccc(Cl)c(-c4ncc(-c5ccccc5)[nH]4)c3)C2)CC1 [Compound 36]
IC50 [1]: 0.001 to 1 nM

OC1CCC(N2CCc3c(cccc3Nc3ccc(Cl)c(-c4ncc(-c5ccccc5)[nH]4)c3)C2)CC1 (stereo not drawn) [Compound 37]
IC50 [2]: 0.73 nM
IC50 [1]: 0.001 to 1 nM

O=C([C@H](O)CO)N1CCc2c(cccc2Nc2ccc(Cl)c(-c3nc(-c4ccccc4)c[nH]3)c2)C1 [Compound 38]
IC50 [1]: 0.001 to 1 nM

Clc1ccc(Nc2cccc3c2CCN(CC2CCOCC2)C3)cc1-c1ncc(-c2ccccc2)[nH]1 [Compound 39]
IC50 [1]: 0.001 to 1 nM

OCC(O)CN1CCC(N2CCc3c(cccc3Nc3ccc(Cl)c(-c4ncc(-c5ccccc5)[nH]4)c3)C2)CC1 (stereo not drawn) [Compound 40]
IC50 [1]: 0.001 to 1 nM

CN1CCC(N2CCc3c(cccc3Nc3ccc(Cl)c(-c4ncc(-c5ccccc5)[nH]4)c3)C2)CC1 [Compound 41]
IC50 [1]: 1 to 10 nM

O=C(NCCO)N1CCc2c(cccc2Nc2ccc(Cl)c(-c3ncc(-c4ccccc4)[nH]3)c2)C1 [Compound 42]
IC50 [2]: 0.0017 nM
IC50 [1]: 0.001 to 1 nM

NC(=O)N1CCc2c(cccc2Nc2ccc(Cl)c(-c3ncc(-c4ccccc4)[nH]3)c2)C1 [Compound 43]
IC50 [2]: 4.5 nM
IC50 [1]: 1 to 10 nM

O=C(O)CC(=O)N1CCc2c(cccc2Nc2ccc(Cl)c(-c3nc(-c4ccccc4)c[nH]3)c2)C1 [Compound 44]
IC50 [1]: 1 to 10 nM

CC(C)(C)OC(=O)N1CCc2c(cccc2Nc2ccc(Cl)c(-c3ncc(-c4ccccc4)[nH]3)c2)C1 [Compound 45]
IC50 [2]: 3 nM
IC50 [1]: 1 to 10 nM

CC(C)N1CCc2c(cccc2Nc2ccc(Cl)c(-c3ncc(-c4ccccc4)[nH]3)c2)C1 [Compound 46]
IC50 [1]: 1 to 10 nM

C[S+]([O-])CCCN1CCc2c(cccc2Nc2ccc(Cl)c(-c3ncc(-c4ccccc4)[nH]3)c2)C1 (stereo not drawn) [Compound 47]
IC50 [1]: 1 to 10 nM

OC[C@H](O)[C@@H](O)CN1CCc2c(cccc2Nc2ccc(Cl)c(-c3ncc(-c4ccccc4)[nH]3)c2)C1 [Compound 48]
IC50 [1]: 1 to 10 nM

[O-][n+]1ccc(N2CCc3c(cccc3Nc3ccc(Cl)c(-c4ncc(-c5ccccc5)[nH]4)c3)C2)cc1 [Compound 49]
IC50 [1]: 1 to 10 nM

O=C(O)CCN1CCc2c(Nc3ccc(Cl)c(-c4nc(-c5ccccc5)c[nH]4)c3)cccc2C1=O [Compound 50]
IC50 [1]: 10 to 100 nM

Clc1ccc(Nc2cccc3c2CCN(Cc2cccnc2)C3)cc1-c1ncc(-c2ccccc2)[nH]1 [Compound 51]
IC50 [2]: 11 nM
IC50 [1]: 10 to 100 nM

Cc1ccc(Nc2cccc3c2CCN(C2CCS(=O)(=O)CC2)C3)cc1-c1ncc(-c2cccnc2)[nH]1 [Compound 52]
IC50 [3]: 10 to 100 nM

O=C(O)CN1CCc2c(cccc2Nc2ccc(Cl)c(-c3nc(-c4ccccc4)c[nH]3)c2)C1 [Compound 53]
IC50 [1]: 10 to 100 nM

CN(C)CC(C)(C)CN1CCc2c(cccc2Nc2ccc(Cl)c(-c3ncc(-c4ccccc4)[nH]3)c2)C1 [Compound 54]
IC50 [1]: 0.001 to 1 nM

CC(C)C(=O)N1CCc2c(cccc2Nc2ccc(Cl)c(-c3ncc(-c4ccccc4)[nH]3)c2)C1 [Compound 55]
IC50 [1]: 1 to 10 nM

CC(=O)N1CCc2c(cccc2Nc2ccc(Cl)c(-c3ncc(-c4ccccc4)[nH]3)c2)C1 [Compound 56]
IC50 [1]: 0.001 to 1 nM

Clc1ccc(Nc2cccc3c2CCNC3)cc1-c1ncc(-c2ccccc2)[nH]1 [Compound 57]
IC50 [2]: 22.7 nM
IC50 [1]: 10 to 100 nM

CC(C(=O)O)N1CCc2c(cccc2Nc2ccc(Cl)c(-c3ncc(-c4ccccc4)[nH]3)c2)C1 (stereo not drawn) [Compound 58]
IC50 [1]: 1 to 10 nM

Cc1ccc(Nc2cccc3c2CCN(S(C)(=O)=O)C3)cc1-c1ncc(-c2cncnc2)[nH]1 [Compound 59]
IC50 [1]: 1 to 10 nM

Cc1ccc(Nc2cccc3c2CCN(S(C)(=O)=O)C3)cc1-c1ncc(-c2cccnc2)[nH]1 [Compound 60]
IC50 [1]: 0.001 to 1 nM

Cc1ccc(Nc2cccc3c2CCN(S(C)(=O)=O)C3)cc1-c1nc2cc(F)ccc2[nH]1 [Compound 61]
IC50 [1]: 0.001 to 1 nM

FC(F)(F)CN1CCc2c(cccc2Nc2ccc(Cl)c(-c3ncc(-c4ccccc4)[nH]3)c2)C1 [Compound 62]
IC50 [1]: 0.001 to 1 nM

Cc1ccc(Nc2cccc3c2CCN(S(C)(=O)=O)C3)cc1-c1nc2ncncc2[nH]1 [Compound 63]
IC50 [1]: 10 to 100 nM

O=C(O)C(F)(F)CN1CCc2c(cccc2Nc2ccc(Cl)c(-c3nc(-c4ccccc4)c[nH]3)c2)C1 [Compound 64]
IC50 [1]: 1 to 10 nM

CC(C)(C(=O)O)N1CCc2c(cccc2Nc2ccc(Cl)c(-c3nc(-c4ccccc4)c[nH]3)c2)C1 [Compound 65]
IC50 [1]: 1 to 10 nM

CCC(CC)(C(=O)O)C(=O)N1CCc2c(cccc2Nc2ccc(Cl)c(-c3nc(-c4ccccc4)c[nH]3)c2)C1 [Compound 66]
IC50 [2]: 5.3 nM
IC50 [1]: 1 to 10 nM

CC(C)(C(=O)O)C(=O)N1CCc2c(cccc2Nc2ccc(Cl)c(-c3ncc(-c4ccccc4)[nH]3)c2)C1 [Compound 67]
IC50 [1]: 1 to 10 nM

O=C(O)C1(C(=O)N2CCc3c(cccc3Nc3ccc(Cl)c(-c4ncc(-c5ccccc5)[nH]4)c3)C2)CC1 [Compound 68]
IC50 [1]: 0.001 to 1 nM

O=C(O)C1(C(=O)N2CCc3c(cccc3Nc3ccc(Cl)c(-c4ncc(-c5ccccc5)[nH]4)c3)C2)CCC1 [Compound 69]
IC50 [2]: 1.4 nM
IC50 [1]: 1 to 10 nM

Cc1ccc(Nc2cccc3c2CCN(C(=O)C(C)(CO)CO)C3)cc1-c1nc2ccccc2[nH]1 [Compound 70]
IC50 [1]: 0.001 to 1 nM

OCC(F)(F)CN1CCc2c(cccc2Nc2ccc(Cl)c(-c3nc(-c4ccccc4)c[nH]3)c2)C1 [Compound 71]
IC50 [1]: 0.001 to 1 nM

O=C(CO)N1CCc2c(cccc2Nc2ccc(Cl)c(-c3ncc(-c4ccccc4)[nH]3)c2)C1 [Compound 72]
IC50 [1]: 0.001 to 1 nM

CC1(C(=O)N2CCc3c(cccc3Nc3ccc(Cl)c(-c4ncc(-c5ccccc5)[nH]4)c3)C2)CC1 [Compound 73]
IC50 [2]: 0.5 nM
IC50 [1]: 0.001 to 1 nM

O=C(N1CCc2c(cccc2Nc2ccc(Cl)c(-c3ncc(-c4ccccc4)[nH]3)c2)C1)C1(O)CC1 [Compound 74]
IC50 [1]: 0.001 to 1 nM

Cc1ccc(Nc2cccc3c2CCN(C2CCS(=O)(=O)CC2)C3)cc1-c1ncc(-c2cccnc2)[nH]1 [Compound 75]
IC50 [3]: 1 to 10 nM

Cc1ccc(Nc2cccc3c2CCN(C(=O)C(C)(CO)CO)C3)cc1-c1ncc(-c2cccnc2)[nH]1 [Compound 76]
IC50 [1]: 1 to 10 nM

CC(C(=O)O)N1CCc2c(Nc3ccc(Cl)c(-c4nc(-c5ccccc5)c[nH]4)c3)cccc2C1=O (stereo not drawn) [Compound 77]
IC50 [1]: 100 to 1000 nM

C[C@H](C(=O)O)N1CCc2c(cccc2Nc2ccc(Cl)c(-c3nc(-c4ccccc4)c[nH]3)c2)C1 [Compound 78]
IC50 [1]: 1 to 10 nM
